From patent US9157917B2, “Applications of Indoloindole and Indoloquinoline dyes” (Biosynth AG, priority 2010, dated 2015)

Legend:
[1] = Fluorescence of Aldol 495 nonanoate in nutrient broth, sterile control; assay type: physicochemical
[2] = system: various bacterial strains; assay: Nonanoate indicators in buffered peptone water in polystyrene plates; assay type: cell-based; conditions: 0.4 mM, polystyrene plate, 37° C., 48 hours, excitation 360 nm, emission 560 nm
Protocol: Buffered peptone water containing either 0.4 mM Aldol™ 495 nonanoate or 0.2 mM 4-methylumbelliferyl nonanoate was dispensed in a microtiter plate and inoculated with about 700 cfu/ml of various bacterial strains. […] An excitation wavelength of 360 nm was used for both dyes, the emission wavelength was 560 nm for the Aldol™ 495 dye and 460 nm for the 4-methylumbelliferone.

Salmonella = Salmonella grown in medium with precursor emulsion in glass tubes; assay type: cell-based; conditions: medium without detergents
S. enteritidis = assay: Fluorescence of Aldol 495 nonanoate in nutrient broth cultures; conditions: for Fluorescence values: S. enteritidis
E. coli = assay: as above; assay type: cell-based

CCCCCCCCC(=O)Oc1cn(-c2ccccc2C(=O)c2cccn2C)c2cc(Cl)ccc12 [Aldol™ 495 nonanoate]
Fluorescence values ([1]; stock solution 50 mM, 0 h): 392 RFU | Fluorescence values ([1]; stock solution 50 mM, 12 h): 445 RFU | Fluorescence values ([1]; stock solution 50 mM, 18 h): 434 RFU | Fluorescence values ([1]; stock solution 50 mM, 48 h): 511 RFU | Fluorescence values ([1]; stock solution 50 mM, 120 h): 523 RFU | Fluorescence values ([1]; stock solution 200 mM, 0 h): 433 RFU | Fluorescence values ([1]; stock solution 200 mM, 12 h): 399 RFU | Fluorescence values ([1]; stock solution 200 mM, 18 h): 411 RFU | Fluorescence values ([1]; stock solution 200 mM, 48 h): 422 RFU | Fluorescence values ([1]; stock solution 200 mM, 120 h): 455 RFU | Specificity of fluorescence [2]: specific for Salmonella strains | Fluorescence of Salmonella culture (Salmonella): yellow green fluorescence | Fluorescence signal, indicator added from 20 mM stock solution versus 200 mM stock solution (S. enteritidis): stronger fluorescence signal | Fluorescence values (S. enteritidis; stock solution 50 mM, 0 h): 406 RFU | Fluorescence values (S. enteritidis; stock solution 50 mM, 12 h): 2922 RFU | Fluorescence values (S. enteritidis; stock solution 50 mM, 18 h): 10047 RFU | Fluorescence values (S. enteritidis; stock solution 50 mM, 48 h): 45027 RFU | Fluorescence values (S. enteritidis; stock solution 50 mM, 120 h): 13424 RFU | Fluorescence values (S. enteritidis; stock solution 200 mM, 0 h): 412 RFU | Fluorescence values (S. enteritidis; stock solution 200 mM, 12 h): 1812 RFU | Fluorescence values (S. enteritidis; stock solution 200 mM, 18 h): 3449 RFU | Fluorescence values (S. enteritidis; stock solution 200 mM, 48 h): 8403 RFU | Fluorescence values (S. enteritidis; stock solution 200 mM, 120 h): 5169 RFU | Fluorescence values (E. coli; stock solution 50 mM, 0 h): 424 RFU | Fluorescence values (E. coli; stock solution 50 mM, 12 h): 463 RFU | Fluorescence values (E. coli; stock solution 50 mM, 18 h): 551 RFU | Fluorescence values (E. coli; stock solution 50 mM, 48 h): 1710 RFU | Fluorescence values (E. coli; stock solution 50 mM, 120 h): 3851 RFU | Fluorescence values (E. coli; stock solution 200 mM, 0 h): 444 RFU | Fluorescence values (E. coli; stock solution 200 mM, 12 h): 404 RFU | Fluorescence values (E. coli; stock solution 200 mM, 18 h): 468 RFU | Fluorescence values (E. coli; stock solution 200 mM, 48 h): 774 RFU | Fluorescence values (E. coli; stock solution 200 mM, 120 h): 1924 RFU
